Test results taken from patent US7973218B2, “Methods and compositions for controlling weeds” (Pioneer Hi-Bred International, Inc., priority 2005, dated 2011).

Tests used:
lead GAT7 soybean events = experiment: Field efficacy experiment JHM5G030, visual rating 7 and 14 days after treatment; format: in vivo; conditions: 7 DAS and 14 DAS; rimsulfuron 8.75 and 35.0 g/ha ai; Synchrony 35.03 and 140.11 g/ha ai; tribenuron 8.75 and 35.0 g/ha ai
Protocol: GAT round 7 (GAT7) transgenic events from construct PHP20163A were evaluated in 2004 for herbicide efficacy (JHM464TGATEFF) and yield potential (JHD4_GAT7 tests). […] 92M90 was selected as a STS variety to compare directly with the SAMS:ALS construct in the GAT7 events. Variety Jack was utilized as an untransformed negative control.
Selected lines were grown in experiment JHM5G030 in two replications of paired twelve foot rows, with eleven different treatments applied. Lines were blocked by event and treatment to provide side-by-side comparison of the eleven different spray treatments, with a 2 row border between each treatment to catch any spray drift. […] Lines were given a 100 (complete susceptibility, 100% damage) to 0 (complete tolerance, 0% damage) visual rating at 7 days after treatment and again at 14 days after treatment. Visual ratings were based upon overall degree of chlorosis, necrosis, and plant stunting (if evident) in the treated rows compared to the respective unsprayed control rows. Rating data at 7 and 14 days after spraying were subject to ANOVA and mean separation using SAS.

[1] = test system: Untransformed Coker 312 cotton plants; experiment: Greenhouse over-the-top herbicide spray of cotton; format: in vivo, Gossypium hirsutum
Excerpt: (§1) Cotton (Gossypium hirsutum) Coker 312 was transformed with a GAT polynucleotide (gat 4621) together with an Hra polynucleotide (SEQ ID NO:86) both operably linked to strong, constitutive plant viral promoters. The promoter linked to gat4621 contains a duplicated portion of the Strawberry Vein Banding Virus transcript promoter (Wang et al. Virus Genes 20: 11-17, 2000; Genbank X97304). The Hra gene was driven by a duplicated portion of the Mirabilis Mosaic Caulimovirus full-length transcript promoter (U.S. Pat. No. 6,420,547; Dey and Maiti, Transgenics 3:61-70, 1999). The transformation procedure used Agrobacterium tumefaciens containing an expression cassette with the genes to be transferred and cotyledon explant derived callus with some capacity to undergo embryogenesis. The callus was exposed to Agrobacterium for 48-72 hours. The callus was then exposed to selection for transformed cells on 50-200 μg/l chlorosulfuron and/or 50-450 μM glyphosate in solid medium. Glyphosate can also be used in a concentration range of about 5 to about 450 μM. Selection was applied until somatic embryos formed, and selection was again applied at the embryo germination step, and optionally during rooting of plantlets. Over 450 GAT-HRA transformation events were produced using selection with both chlorsulfuron and glyphosate.
(§2) Transformed cotton plants were rooted and then transferred to soil for further growth. Plants were then subjected to herbicide spray treatments in a greenhouse. […] Untransformed Coker 312 control plants were dead 2 weeks after glyphosate application. […] Plants transformed with both GAT and HRA were further subjected to an “over the top” application of the sulfonylurea herbicide rimsulfuron at a rate of 16 g active ingredient/hectare. […] In further experiments 32 g ai/ha rimsulfuron were applied to the cotton.

[2] = test system: Soybeans comprising the lead GAT7 event and also having HRA; experiment: Greenhouse test confirming the field trial (Example 6B); format: in vivo, soybean; conditions: GAT/HRA Soybeans
Excerpt: Example 6B provides greenhouse data that confirms the field trial data provided above in Example 6A. Soybeans comprising the lead GAT7 event and also having HRA were used in the studies.

[3] = test system: Wild Type soybeans (Jack); experiment: Postemergence herbicide test on soybeans, % visual injury; format: in vivo, soybean; conditions: non-transgenic control soybeans; 35 g/ha
Protocol: (§3) Four replications were performed for each treatment.
(§4) When possible, containers were thinned to two uniform plants.

GAT-HRA soybeans = experiment: as above; format: in vivo, soybean; conditions: 35 g/ha
Protocol: as §3, §4

[4] = test system: Parent elite stiff stalk inbred corn; experiment: Postemergence herbicide application to potted corn (fresh weight, visual injury); format: in vivo; conditions: 3472 g ae/ha
[5] = test system: infected GS3 embryos with the GAT construct; experiment: Glyphosate selection of infected embryos; format: cell-based, maize; conditions: 1.0 mM or 2.0 mM glyphosate in medium; about 40 days culture
Protocol: (§5) A glyphosate kill curve was established by testing non-transformed embryos response on media with different levels of glyphosate. GS3 embryos were isolated from an immature ear and placed onto media containing glyphosate at 0.0, 0.5, 1.0, and 2.0 mM. After about 40 days culture, the response of the embryos were observed and recorded. Similarly, infected GS3 embryos with the GAT construct were placed onto media containing glyphosate at 0.0, 0.5, 1.0, and 2.0 mM. After about 40 days culture, the response of the infected embryos were observed and recorded (FIG. 7).

[6] = test system: Hairy Fleabane (Conyza bonariensis), glyphosate sensitive biotype; experiment: Control of hairy fleabane by glyphosate, metsulfuron-methyl and two additives; format: in vivo; conditions: glyphosate on its own
Protocol: This example included the same treatments as used in Example 11, except the treatments were carried out on a glyphosate sensitive biotype of Kleinskraalhans (Conyza bonariensis).

[7] = test system: non-glyphosate resistant ryegrass; experiment: Control of ryegrass by glyphosate, metsulfuron-methyl and two additives; format: in vivo; conditions: 0.5 L ha-1 glyphosate (SCAT) alone
Protocol: The example was conducted on non-glyphosate resistant ryegrass. As provided in Table 23, all treatments that included glyphosate [180 g a.i. L ha^−1 (0.5 L glyphosate (SCAT®))] plus metsulfuron-methyl (BRUSH-OFFS®) (5 and 10 g ha^−1) gave 100% control of the ryegrass.

[8] = test system: Heterozygous GAT-HRA corn; experiment: Postemergence herbicide application to potted corn (fresh weight, visual injury); format: in vivo; conditions: 3472 g ae/ha
[9] = test system: Glyphosate, Paraquat, and ACCase-Inhibitor Resistant Ryegrass; experiment: Control of resistant ryegrass by glyphosate and representative SU's; format: in vivo; conditions: glyphosate (SCAT) only or plus an SU
Excerpt: In this example, four different SU's were applied together with glyphosate (SCAT®) on the resistant ryegrass. The results as to the best SU partner for glyphosate were inconclusive, but the average benefit of applying an SU with glyphosate on herbicide resistant ryegrass was 39% (e.g., 34% control with glyphosate (SCAT®) only and 57-83% control with glyphosate (SCAT®) plus metsulfuron-methyl (BRUSH-OFF®), chlorsulfuron (GLEAN®), or triasulfuron (LOGRAN(®)).

[10] = test system: GAT-HRA transgenic cotton plants; experiment: Greenhouse over-the-top herbicide spray of cotton; format: in vivo, Gossypium hirsutum; conditions: glyphosate 1.5 lb acid equivalent per acre; 14 days after application
Excerpt: as §1, §2

[11] = test system: non-transformed GS3 embryos; experiment: Glyphosate kill curve; format: cell-based, maize; conditions: about 40 days culture
Protocol: as §5

Structure (SMILES) | spray damage of the 4 GAT events compared to Jack and STS (lead GAT7 soybean events) | damage from the application ([1]; 16 g active ingredient/hectare, in the absence of glyphosate) | % Growth Reduction ([2]; Rimsulfuron 35 + Imazethapyr 0 g ai/ha, Treatment # 6) | % Growth Reduction ([2]; Rimsulfuron 70 + Imazethapyr 0 g ai/ha, Treatment # 11) | damage [3] | damage (GAT-HRA soybeans) | Fresh Weight ([4]; weighed 2 weeks after treatment, untreated 76.4 g) | % visual injury to corn at 3472 g/ha ([4]; Zea mays, post-emergence) | resistant callus initiation [5] | plants killed [6] | plants that eventually died [7] | Fresh Weight ([8]; weighed 2 weeks after treatment, untreated 98.8 g) | Visual crop injury (%) at 3472 g/ha ([8]; Zea mays, post-emergence) | control [9] | transgenic plants with no deleterious symptoms [10] | state of plants after application ([1]; 1.5 lb acid equivalent per acre, 4-6 leaf stage, 2 weeks after application) | callus initiation ([11]; 0.5 mM glyphosate in medium) | callus growth ([11]; 1.0 and 2.0 mM glyphosate in medium)
CCS(=O)(=O)c1cccnc1S(=O)(=O)NC(=O)Nc1nc(OC)cc(OC)n1 [Rimsulfuron, N-[[(4,6-dimethoxy-2-pyrimidinyl)amino]carbonyl]-3-(ethylsulfonyl)-2-pyridinesulfonamide] | significantly less spray damage compared to Jack and STS | severe damage | 67% | 73% | – | – | – | – | – | – | – | – | – | – | – | – | – | –
COC(=O)c1ccccc1S(=O)(=O)NC(=O)N(C)c1nc(C)nc(OC)n1 [Tribenuron-methyl, methyl 2-[[[[N-(4-methoxy-6-methyl-1,3,5-triazin-2-yl)-N-methylamino]carbonyl]-amino]sulfonyl]benzoate] | significantly less visual damage compared to STS and Jack | – | – | – | killed | no significant damage | – | – | – | – | – | – | – | – | – | – | – | –
O=C(O)CNCP(=O)(O)O [Glyphosate, N-phosphonomethylglycine] | – | – | – | – | – | – | 1.0 g | 100% | some embryos initiated resistant callus | 1 out of 16 plants (12%) | 15 of the 16 plants (12%) | 97.4 g | 10% | 34% | approximately 50% | dead | about half of the embryos | very little callus growth
